Experiments:
Assay in all cases: Glasshouse peri-emergence herbicide test, damage to plant
Format in all cases: in vivo
Conditions in all cases: sprayed six days after sowing (peri-emergence), evaluated after 14 days; rate gai/ha: Prosulfocarb 2400, Flumioxazin 20, combination 2400 + 20
[1] = system: APESV = Apera spica-venti
Method: (§1) Seeds of a variety of test species were sown in standard soil. After cultivation for six days (peri-emergence) under controlled conditions in a glasshouse (at 24/16° C., day/night; 14 hours light; 65% humidity), the plants were sprayed with an aqueous spray solution comprising the technical active ingredient(s). The test plants were then grown in a glasshouse under controlled conditions in a glasshouse (at 24/16° C., day/night; 14 hours light; 65% humidity) and watered twice daily. After 14 days, the test was evaluated (100=total damage to plant; 0=no damage to plant).

[2] = system: GALAP = Galium aparine
Method: as §1

[3] = system: POAAN = Poa annua
Method: as §1

[4] = system: VERPE = Veronica persicae
Method: as §1

[5] = system: LOLMU = Lolium multiflorum
Method: as §1

[6] = system: AVEFA = Avena fatua
Method: as §1

[7] = system: ALOMY = Alopecurus myosuroides
Method: as §1

[8] = system: HORVW = Hordeum vulgare
Method: as §1

[9] = system: TRZAW = Tritcum aestivum
Method: as §1

CCCN(CCC)C(=O)SCc1ccccc1 [Prosulfocarb, prosulfocarb]
damage to plant (100=total damage; 0=no damage), APESV [1]: 95
damage to plant (100=total damage; 0=no damage), GALAP [2]: 78
damage to plant (100=total damage; 0=no damage), POAAN [3]: 0
damage to plant (100=total damage; 0=no damage), VERPE [4]: 88
damage to plant (100=total damage; 0=no damage), LOLMU [5]: 30
damage to plant (100=total damage; 0=no damage), AVEFA [6]: 55
damage to plant (100=total damage; 0=no damage), ALOMY [7]: 78

C#CCN1C(=O)COc2cc(F)c(N3C(=O)C4=C(CCCC4)C3=O)cc21 [Flumioxazin, flumioxazin]
damage to plant (100=total damage; 0=no damage), APESV [1]: 60
damage to plant (100=total damage; 0=no damage), GALAP [2]: 73
damage to plant (100=total damage; 0=no damage), POAAN [3]: 5
damage to plant (100=total damage; 0=no damage), VERPE [4]: 99
damage to plant (100=total damage; 0=no damage), LOLMU [5]: 0
damage to plant (100=total damage; 0=no damage), HORVW [8]: 0
damage to plant (100=total damage; 0=no damage), TRZAW [9]: 8
damage to plant (100=total damage; 0=no damage), AVEFA [6]: 8
damage to plant (100=total damage; 0=no damage), ALOMY [7]: 33

— patent US20100048398A1, “HERBICIDAL COMBINATION” (SYNGENTA CROP PROTECTION, INC., priority 2006, published 2010)
